On to `CCCOc1cc(SC)ccc1-c1ccc(C#N)c(=O)[nH]1` [2(a), 3-Cyano-6-(4-methylthio-2-propoxyphenyl)-2(1H)-pyridinone], for which the melting point lay within 196 to 197 °C.
`CCCOc1cc(OC)ccc1-c1ccc(C#N)c(=O)[nH]1` [9(a), 3-Cyano-6-(4-methoxy-2-propoxyphenyl)-2(1H)-pyridinone] registered a melting point of 183 to 183.5 °C.

The melting point is the temperature of the solid-liquid transition.

The values above are taken from patent US6479520B1, “Method of treating a patient having precancerous lesions with phenyl pyridinone derivatives” (Cell Pathways, Inc., priority 1995, dated 2002).
